In patent US20240287025A1, “TETRAHYDROQUINOLINE (THQ) COUMPOUNDS” (Centre National de la Recherche Scientifique, priority 2021, published 2024):

Tests used:
Brd4 BD1 = Brd4 BD1 (Homo sapiens (Human), UniProt O60885); test: HTRF evaluation of bromodomain inhibitors, Brd4 BD1; type: binding; details: H4ac4 peptide 50 nM, 4 h at 4° C.
Description: (§1) HTRF reagents and buffers were purchased from Cisbio Bioassays. The assay used a terbium (Ill) cryptate donor reagent conjugated to an anti-GST antibody (MAb anti-GST-Tb; GSTTLA), a streptavidin-conjugated acceptor reagent (streptavidin-d2) and Cisbio proprietary buffers (EPlgeneous Binding Domain Diluent and Detection buffer, respectively). GST-tagged bromodomains (BDs) were expressed in E. coli and purified using standard procedures. Incubation of GST-tagged BDs with biotinylated acetylated H4 peptide (H4K5acK8acK12acK16ac, here named H4ac4) brings the donor and acceptor into close proximity and allows for a FRET reaction. GST-tagged proteins in 25 mM Hepes pH 7.5, 150 mM NaCl, 0.5 mM DTT were assayed at a final concentration of 5 nM. Biotinylated H4ac4 peptides were used at a final concentration of 50, 600 nM in assays involving Brd4 BD1, Brd4 BD2, respectively. The antibody-conjugated donor was used at 0.5 nM and the streptavidin-conjugated acceptor was used at ⅛ of the H4ac4 peptide concentration. Inhibitors were tested by performing an eleven-point dilution series with a maximal final concentration of […]. These concentrations allowed a fixed DMSO concentration at 0.2%, critical for a Z′ factor ≥0.8. Components were incubated at 4° C. for 4 h (BD1) or for 24 h (BD2). Experiments were performed in 384-well white plates (Greiner ref. 781080) and analyzed in a ClarioStar plate reader (BMG LABTECH, excitation at 330 nm and emission at 620 and 665 nm, corresponding to the donor and acceptor emission peaks, respectively; the 665/620 ratio is used to calculate the specific HTRF signal) with an integration delay of 60 μs and an integration time of 400 μs.

Brd4 BD2 = Brd4 BD2 (Homo sapiens (Human), UniProt O60885); test: HTRF evaluation of bromodomain inhibitors, Brd4 BD2; type: binding; details: for IC50: HTRF, H4ac4 peptide 600 nM, 24 h at 4° C.; for Selectivity BD2/BD1: ratio of the BD1 and BD2 IC50
Description: as §1

## CC[C@H]1[C@@H](C)C(n2cc(COCCOCc3cn(C4c5cc(C(=O)OC)ccc5N(C(C)=O)[C@@H](CC)[C@H]4C)nn3)nn2)c2cc(C(=O)OC)ccc2N1C(C)=O (stereo partly drawn) [XU, Dimethyl-4,4′-(((ethane-1,2-diylbis(oxy))bis(methylene))bis(1H-1,2,3-triazole-4,1-diyl))(2S,2'S,3R,3′R,4S,4'S)-bis(1-acetyl-2-ethyl-3-methyl-1,2,3,4-tetrahydroquinoline-6-carboxylate)]
Brd4 BD1
  IC50: 247 nM
Brd4 BD2
  IC50: 57 nM
  Selectivity BD2/BD1: 4.3

## CC[C@H]1[C@@H](C)[C@H](n2cc(COCCOCCOCc3cn(C4c5cc(C(=O)OC)ccc5N(C(C)=O)[C@@H](CC)[C@H]4C)nn3)nn2)c2cc(C(=O)OC)ccc2N1C(C)=O (stereo partly drawn) [XV, Dimethyl-4,4′-((((oxybis(ethane-2,1-diyl))bis(oxy))bis(methylene))bis(1H-1,2,3-triazole-4,1-diyl))(2S,2'S,3R,3′R,4S,4'S)-bis(1-acetyl-2-ethyl-3-methyl-1,2,3,4-tetrahydroquinoline-6-carboxylate)]
Brd4 BD1
  IC50: 1670 nM
Brd4 BD2
  IC50: 2430 nM
  Selectivity BD2/BD1: 0.7

## CC[C@H]1[C@@H](C)[C@H](n2cc(COCCOCCOCCOCc3cn(C4c5cc(C(=O)OC)ccc5N(C(C)=O)[C@@H](CC)[C@H]4C)nn3)nn2)c2cc(C(=O)OC)ccc2N1C(C)=O (stereo partly drawn) [XW, Dimethyl-4,4′-((2,5,8,11-tetraoxadodecane-1,12-diyl)bis(1H-1,2,3-triazole-4,1-diyl))(2S,2′S,3R,3′R,4S,4′S)-bis(1-acetyl-2-ethyl-3-methyl-1,2,3,4-tetrahydroquinoline-6-carboxylate)]
Brd4 BD1
  IC50: 1850 nM
Brd4 BD2
  IC50: 95.4 nM
  Selectivity BD2/BD1: 19.4

## CC[C@H]1[C@@H](C)[C@H](n2cc(COCCOCCOCCOCCOCc3cn(C4c5cc(C(=O)OC)ccc5N(C(C)=O)[C@@H](CC)[C@H]4C)nn3)nn2)c2cc(C(=O)OC)ccc2N1C(C)=O (stereo partly drawn) [XX, Dimethyl-4,4′-((2,5,8,11,14-pentaoxapentadecane-1,15-diyl)bis(1H-1,2,3-triazole-4,1-diyl))(2S,2'S,3R,3′R,4S,4'S)-bis(1-acetyl-2-ethyl-3-methyl-1,2,3,4-tetrahydroquinoline-6-carboxylate)]
Brd4 BD1
  IC50: 1470 nM
Brd4 BD2
  IC50: 129 nM
  Selectivity BD2/BD1: 11.5

## CC[C@H]1[C@@H](C)C(n2cc(COCCOCCOCCOCCOCCOCc3cn(C4c5cc(C(=O)OC)ccc5N(C(C)=O)[C@@H](CC)[C@H]4C)nn3)nn2)c2cc(C(=O)OC)ccc2N1C(C)=O (stereo partly drawn) [XY, Dimethyl-4,4′-((2,5,8,11,14,17-hexaoxaoctadecane-1,18-diyl)bis(1H-1,2,3-triazole-4,1-diyl))(2S,2'S,3R,3′R,4S,4'S)-bis(1-acetyl-2-ethyl-3-methyl-1,2,3,4-tetrahydroquinoline-6-carboxylate)]
Brd4 BD1
  IC50: 1560 nM
Brd4 BD2
  IC50: 95 nM
  Selectivity BD2/BD1: 16.4

## CC[C@H]1[C@@H](C)[C@H](N=[N+]=[N-])c2cc(C(F)(F)F)ccc2N1C(C)=O [YB, 1-((2S,3R,4S)-4-azido-2-ethyl-3-methyl-6-(trifluoromethyl)-3,4-dihydroquinolin-1(2H)-yl)ethan-1-one]
Brd4 BD1
  IC50: 67000 nM
Brd4 BD2
  IC50: 7570 nM
  Selectivity BD2/BD1: 8.8

## CCCCCc1cn([C@@H]2c3cc(C(F)(F)F)ccc3N(C(C)=O)[C@@H](CC)[C@H]2C)nn1 [YD, 1-((2S,3R,4S)-2-ethyl-3-methyl-4-(4-pentyl-1H-1,2,3-triazol-1-yl)-6-(trifluoromethyl)-3,4-dihydroquinolin-1(2H)-yl)ethan-1-one]
Brd4 BD1
  IC50: 41800 nM
Brd4 BD2
  IC50: 5710 nM
  Selectivity BD2/BD1: 7.3

## CC[C@H]1[C@@H](C)[C@H](n2cc(COCCOCC#Cc3cccc4c3CN(C3CCC(=O)NC3=O)C4=O)nn2)c2cc(C(=O)OC)ccc2N1C(C)=O (stereo partly drawn) [YE, Methyl-(2S,3R,4S)-1-acetyl-4-(4-((2-((3-(2-(2,6-dioxopiperidin-3-yl)-1-oxoisoindolin-4-yl)prop-2-yn-1-yl)oxy)ethoxy)methyl)-1H-1,2,3-triazol-1-yl)-2-ethyl-3-methyl-1,2,3,4-tetrahydroquinoline-6-carboxylate]
Brd4 BD1
  IC50: 7870 nM
Brd4 BD2
  IC50: 486 nM
  Selectivity BD2/BD1: 16.2

## CC[C@H]1[C@@H](C)[C@H](n2cc(COCCOCCOCCOCC#Cc3cccc4c3CN(C3CCC(=O)NC3=O)C4=O)nn2)c2cc(C(=O)OC)ccc2N1C(C)=O (stereo partly drawn) [YF, Methyl-(2S,3R,4S)-1-acetyl-4-(4-(14-(2-(2,6-dioxopiperidin-3-yl)-1-oxoisoindolin-4-yl)-2,5,8,11-tetraoxatetradec-13-yn-1-yl)-1H-1,2,3-triazol-1-yl)-2-ethyl-3-methyl-1,2,3,4-tetrahydroquinoline-6-carboxylate]
Brd4 BD1
  IC50: 17000 nM
Brd4 BD2
  IC50: 1330 nM
  Selectivity BD2/BD1: 12.7

## CC[C@H]1[C@@H](C)[C@H](n2cc(COCCOCCOCCOCCOCCOCC#Cc3cccc4c3CN(C3CCC(=O)NC3=O)C4=O)nn2)c2cc(C(=O)OC)ccc2N1C(C)=O (stereo partly drawn) [YG, Methyl-(2S,3R,4S)-1-acetyl-4-(4-(20-(2-(2,6-dioxopiperidin-3-yl)-1-oxoisoindolin-4-yl)-2,5,8,11,14,17-hexaoxaicos-19-yn-1-yl)-1H-1,2,3-triazol-1-yl)-2-ethyl-3-methyl-1,2,3,4-tetrahydroquinoline-6-carboxylate]
Brd4 BD1
  IC50: > 20000 nM
Brd4 BD2
  IC50: 1360 nM

## CC[C@H]1[C@@H](C)[C@H](n2nnc3c2CCC2C(CO)C2CC3)c2cc(C(=O)OC)ccc2N1C(C)=O (stereo partly drawn) [YI, Methyl-(2S,3R,4S)-1-acetyl-2-ethyl-4-(6-(hydroxymethyl)-5,5a,6,6a,7,8-hexahydrocyclopropa[5,6]cycloocta[1,2-d][1,2,3]triazol-1(4H)-yl)-3-methyl-1,2,3,4-tetrahydroquinoline-6-carboxylate]
Brd4 BD1
  IC50: 33600 nM
Brd4 BD2
  IC50: 798 nM
  Selectivity BD2/BD1: 42.1

## C=CCCCC(=O)Nc1ccc(-c2ccc3c(c2)[C@H](N=[N+]=[N-])[C@@H](C)[C@@H](CC)N3C(C)=O)cc1 [ent-XC]
Brd4 BD1
  IC50: 22400 nM
Brd4 BD2
  IC50: 4430 nM
  Selectivity BD2/BD1: 5.1

## C=CCCCC(=O)Nc1ccc(-c2ccc3c(c2)[C@H](n2cc(-c4ccccc4)nn2)[C@@H](C)[C@@H](CC)N3C(C)=O)cc1 [ent-XD]
Brd4 BD1
  IC50: 2300 nM
Brd4 BD2
  IC50: 677 nM
  Selectivity BD2/BD1: 3.4

## C=CCCCC(=O)Nc1ccc(-c2ccc3c(c2)[C@H](n2cc(CCCCC)nn2)[C@@H](C)[C@@H](CC)N3C(C)=O)cc1 [ent-XE]
Brd4 BD1
  IC50: > 100000 nM
Brd4 BD2
  IC50: > 100000 nM

## CCCCCc1cn([C@H]2c3cc(C(=O)OC)ccc3N(C(C)=O)[C@H](CC)[C@@H]2C)nn1 [ent-XF]
Brd4 BD1
  IC50: 6300 nM
Brd4 BD2
  IC50: 8330 nM
  Selectivity BD2/BD1: 0.8

## C=CCCCC(=O)Nc1ccc(-c2ccc3c(c2)[C@H](NC(=O)OC(C)C)[C@@H](C)[C@@H](CC)N3C(C)=O)cc1 [ent-XI]
Brd4 BD1
  IC50: 5740 nM
Brd4 BD2
  IC50: 2940 nM
  Selectivity BD2/BD1: 2.0

## CC[C@@H]1[C@H](C)[C@@H](NC(=O)OC(C)C)c2cc(C(=O)OC)ccc2N1C(C)=O [ent-XJ]
Brd4 BD1
  IC50: > 100000 nM
Brd4 BD2
  IC50: 17700 nM

## C=CCCCC(=O)Nc1ccc(-c2ccc3c(c2)[C@H](Nc2ncc(Cl)cn2)[C@@H](C)[C@@H](CC)N3C(C)=O)cc1 [ent-XK]
Brd4 BD1
  IC50: 6090 nM
Brd4 BD2
  IC50: 2020 nM
  Selectivity BD2/BD1: 3.0

## CC[C@@H]1[C@H](C)[C@@H](Nc2ncc(Cl)cn2)c2cc(C(=O)OC)ccc2N1C(C)=O [ent-XL]
Brd4 BD1
  IC50: > 100000 nM
Brd4 BD2
  IC50: 7440 nM
